# From patent US20260124223A1, “CANCER IMMUNOTHERAPIES” (Northwestern University, priority 2022, published 2026)
# What was measured:
# recurrent GBM patients = assay: Multiplex immunofluorescence of FcγRIIIA on TAMs, pre-DOX and during-DOX GBM samples; assay type: in vivo, human; conditions: DOX+aPD-1 with concomitant LIPU/MB, vs tissue before treatment, 4 patients
# Excerpt: Multiplex immunofluorescence staining/cellular identification and phenotyping. The multiplex panel included the following unconjugated antibodies: GFAP (glioma cells), CD11c (antigen presenting cells), CD68 (pan monocyte/macrophage), CD163 (macrophage scavenger receptor), FcγRIIIA (Receptor binding the Fc region of IgG, CD16A). All antibodies were validated using conventional immunofluorescence (IF) staining in conjunction with the corresponding fluorophore and the spectral 4′,6-diamidino-2-pheynlindole (DAPI; ThermoFisher Scientific) counterstain. For optimal concentration and best signal/noise ratio all antibodies were tested at three different dilutions, starting with the manufacturer-recommended dilution (MRD), then MRD/2 and MRD/4. Secondary Alexa fluorophore 555 (ThermoFisher Scientific) and Alexa fluorophore 647 (ThermoFisher Scientific) were used at 1/200 and 1/400 dilutions respectively. […]
# Slides are automatically scanned using the Lunaphore COMET™ with fluorescent high-power field scan (20× magnification microscope). […] The OME.TIFF images ware analyzed in Visiopharm software for immune populations' configuration and quantification.
# All digitized images were analyzed using the Visiopharm software platform (Hørsholm, Denmark). […]
# CT2A-bearing mice = assay: Survival of CT2A-bearing mice treated with aPD-1, liposomal DOX, US/MB; assay type: in vivo, mouse
# Protocol: (§1) Ultrasound-mediated BBB opening in mouse models.
# (§2) Cell lines and implantable syngeneic murine glioma models for survival and immunophenotyping studies. Murine GL261 cell line was acquired from the National Institutes of Health. CT2A cell line was acquired from Millipore. GL261 and CT2A were cultured in Dulbecco's modified Eagle's medium (Corning) supplemented with 10% FBS (Hyclone) and 1% penicillin/streptomycin (Corning) at 37° C. in incubators with humified atmosphere of 5% CO2 and 95% air.
# (§3) After injection of glioma cells, the incision was closed using 9 mm stainless steel wound clips. On day 7 and 14 after IC implantation of glioma cell lines, mice were treated with liposomal DOX obtained from the pharmacy of Northwestern Memorial Hospital. On day 7, 10, 14, and 17 after IC injection of glioma cells, mice were treated with either […] of anti-mouse PD-1 (CD279) BE0146 (BioXcell) or rat IgG2a isotype control BE0089 (BioXcell).
# GL261-bearing mice = assay: Survival of GL261-bearing mice treated with liposomal DOX, aPD-1, US/MB; assay type: in vivo, mouse
# Protocol: as §1, §2, §3
structure (smiles),measurement,setting,value
"COc1cccc2c1C(=O)c1c(O)c3c(c(O)c1C2=O)C[C@@](O)(C(=O)CO)C[C@@H]3O[C@H]1C[C@H](N)[C@H](O)[C@H](C)O1 [DOX, Doxorubicin]",frequency of FcγRIIIA+ CD68+ and CD11c+ TAMs,recurrent GBM patients,increase in the frequency
same,survival in Cd8−/− and Cd8+/+ mice,"CT2A-bearing mice; DOX plus anti-PD-1 antibody with US/MB, P=0.0452",survival benefit was only observed in mice that had intact immunity
same,long-term survival percentage,CT2A-bearing mice; anti-PD-1 antibody added to DOX plus US/MB,80%
same,percentage of CD4 IFN-γ+ TNF-α+ T cells,"GL261-bearing mice; DOX alone vs control, P=0.04",higher percentage
same,long-term survivors,"GL261-bearing mice; GL261, anti-PD-1 antibody added to DOX plus US/MB, vs DOX plus US/MB",same percentage of long-term survivors
